The supplement of paper PMC10307832

Legend:
Assay in all cases: relative viability (nuclei count vs DMSO), 5 days (fraction); higher = more cells survive
Ponatinib + Phenformin = compound: Cc1ccc(C(=O)Nc2ccc(CN3CCN(C)CC3)c(C(F)(F)F)c2)cc1C#Cc1cnc2cccnn12 [Ponatinib] + N=C(N)NC(=N)NCCc1ccccc1 [Phenformin] (partner 250 µM)
How it was run: (§1)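 The day after seeding in 1536-well plates, lung cancer cell lines were treated by pin tool with a single drug, or with a fixed anchor-drug dose together with five library-drug doses (not always all listed) in √10 steps. After 5 days, a combined fix-and-stain solution (final 0.05% Triton X-100, 1% formaldehyde, 1 ug/ml Hoechst) was added. Nuclei counted on 4× images gave relative viability as treated counts over vehicle counts, reported as the median of duplicate plates.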

Pazopanib + Linsitinib = compound: Cc1ccc(Nc2nccc(N(C)c3ccc4c(C)n(C)nc4c3)n2)cc1S(N)(=O)=O [Pazopanib] + C[C@]1(O)C[C@@H](c2nc(-c3ccc4ccc(-c5ccccc5)nc4c3)c3c(N)nccn32)C1 [Linsitinib] (partner 1 µM)
How it was run: as §1

Ponatinib + Decitabine = compound: Cc1ccc(C(=O)Nc2ccc(CN3CCN(C)CC3)c(C(F)(F)F)c2)cc1C#Cc1cnc2cccnn12 [Ponatinib] + Nc1ncn([C@H]2C[C@H](O)[C@@H](CO)O2)c(=O)n1 [Decitabine] (partner 2 µM)
How it was run: as §1

Ponatinib + Luminespib = compound: Cc1ccc(C(=O)Nc2ccc(CN3CCN(C)CC3)c(C(F)(F)F)c2)cc1C#Cc1cnc2cccnn12 [Ponatinib] + CCNC(=O)c1noc(-c2cc(C(C)C)c(O)cc2O)c1-c1ccc(CN2CCOCC2)cc1 [Luminespib] (partner 0.01 µM)
How it was run: as §1

Row | Cell Line | relative viability (Ponatinib + Phenformin; first compound 0.002 µM) | relative viability (Ponatinib + Phenformin; first compound 0.006325 µM) | relative viability (Ponatinib + Phenformin; first compound 0.06325 µM) | relative viability (Ponatinib + Phenformin; first compound 0.2 µM) | relative viability (Pazopanib + Linsitinib; first compound 0.01 µM) | relative viability (Pazopanib + Linsitinib; first compound 0.03162 µM) | relative viability (Pazopanib + Linsitinib; first compound 0.1 µM) | relative viability (Pazopanib + Linsitinib; first compound 0.3162 µM) | relative viability (Pazopanib + Linsitinib; first compound 1 µM) | relative viability (Ponatinib + Decitabine; first compound 0.002 µM) | relative viability (Ponatinib + Decitabine; first compound 0.006325 µM) | relative viability (Ponatinib + Decitabine; first compound 0.06325 µM) | relative viability (Ponatinib + Decitabine; first compound 0.2 µM) | relative viability (Ponatinib + Luminespib; first compound 0.002 µM) | relative viability (Ponatinib + Luminespib; first compound 0.006325 µM) | relative viability (Ponatinib + Luminespib; first compound 0.06325 µM) | relative viability (Ponatinib + Luminespib; first compound 0.2 µM)
1 | NCI-H1975 | 0.365 | 0.395 | 0.439 | 0.398 | 0.85 | 0.943 | 0.992 | 0.929 | 0.985 | 0.386 | 0.425 | 0.413 | 0.437 | 0.248 | 0.24 | 0.289 | 0.165
2 | NCI-H2170 | 0.391 | 0.365 | 0.432 | 0.419 |  |  |  |  |  | 0.508 | 0.481 | 0.467 | 0.431 | 0.671 | 0.697 | 0.665 | 0.646
3 | LU99A | 0.823 | 0.873 | 0.744 | 0.859 | 0.377 | 0.522 | 0.589 | 0.565 | 0.52 | 0.803 | 0.968 | 0.992 | 0.789 | 0.288 | 0.25 | 0.274 | 0.242
4 | NCI-H2405 | 0.359 | 0.44 | 0.386 | 0.329 | 0.729 | 1.12 | 1 | 1.12 | 1.02 | 0.762 | 0.754 | 0.821 | 0.685 | 0.664 | 0.833 | 0.941 | 0.64
5 | NCI-H2009 | 0.426 | 0.432 | 0.522 | 0.467 | 1.22 | 1.22 | 1.21 | 1.15 | 1.06 | 0.399 | 0.343 | 0.354 | 0.372 | 0.975 | 0.967 | 1.02 | 0.918
6 | HCC-15 | 0.445 | 0.494 | 0.547 | 0.467 | 0.872 | 0.905 | 0.94 | 0.882 | 1.03 | 0.666 | 0.671 | 0.744 | 0.634 | 0.306 | 0.22 | 0.661 | 0.212
7 | HCC-44 | 0.22 | 0.225 | 0.207 | 0.151 | 0.575 | 0.673 | 0.678 | 0.582 | 0.722 | 0.936 | 0.976 | 0.898 | 0.884 | 0.96 | 0.976 | 1.22 | 1.01
8 | COR-L23 | 0.382 | 0.453 | 0.419 | 0.436 | 1.02 | 1.01 | 0.988 | 1.15 | 0.975 | 0.391 | 0.427 | 0.504 | 0.424 | 0.658 | 0.618 | 0.669 | 0.513
9 | HCC-78 | 0.601 | 0.614 | 0.673 | 0.669 | 0.403 | 0.578 | 0.435 | 0.454 | 0.668 | 0.653 | 0.757 | 0.668 | 0.577 |  |  |  | 
10 | NCI-H1299 |  |  |  |  | 0.902 | 1.02 | 1.01 | 0.97 | 0.932 |  |  |  |  |  |  |  | 
11 | NCI-H838 | 0.567 | 0.715 | 0.527 | 0.442 | 1.01 | 1.05 | 1.01 | 1.18 | 1.19 | 0.417 | 0.475 | 0.458 | 0.487 | 0.324 | 0.324 | 0.298 | 0.3
12 | NCI-H2087 | 0.517 | 0.471 | 0.493 | 0.439 | 1.02 | 0.967 | 1.13 | 0.841 | 0.895 | 0.186 | 0.294 | 0.338 | 0.264 | 0.167 | 0.135 | 0.178 | 0.176
13 | NCI-H1650 | 0.454 | 0.521 | 0.389 | 0.37 |  |  |  |  |  | 0.328 | 0.653 | 0.449 | 0.324 | 0.255 | 0.236 | 0.2 | 0.186
14 | ChaGo-K-1 | 0.423 | 0.447 | 0.477 | 0.466 |  |  |  |  |  | 0.517 | 0.507 | 0.54 | 0.512 | 0.562 | 0.651 | 0.571 | 0.553
15 | NCI-H2228 | 0.356 | 0.356 | 0.342 | 0.357 | 0.741 | 0.665 | 0.792 | 0.901 | 0.607 |  |  |  |  | 0.134 | 0.178 | 0.109 | 0.129
16 | SW 900 | 0.491 | 0.496 | 0.682 | 0.416 |  |  |  |  |  | 0.447 | 0.43 | 0.518 | 0.481 | 0.179 | 0.19 | 0.243 | 0.204
17 | NCI-H1563 | 0.587 | 0.649 | 0.655 | 0.525 | 1.13 | 1.18 | 1.25 | 1.3 | 1.18 |  |  |  |  | 0.48 | 0.535 | 0.595 | 0.476
18 | A549 | 0.161 | 0.142 | 0.142 | 0.147 | 0.452 | 0.638 | 0.591 | 0.598 | 0.757 | 0.238 | 0.294 | 0.324 | 0.295 |  |  |  | 
19 | NCI-H2342 | 0.5 | 0.488 | 0.538 | 0.595 |  |  |  |  |  | 0.74 | 0.703 | 0.837 | 0.77 | 0.759 | 0.701 | 0.834 | 0.601
20 | NCI-H1623 | 0.567 | 0.606 | 0.611 | 0.627 |  |  |  |  |  |  |  |  |  | 0.372 | 0.484 | 0.491 | 0.426
21 | NCI-H522 | 0.697 | 0.657 | 0.653 | 0.56 |  |  |  |  |  | 0.615 | 0.64 | 0.615 | 0.609 | 1.17 | 1.3 | 1.18 | 1.09
22 | IA-LM |  |  |  |  | 0.428 | 0.553 | 0.527 | 0.613 | 0.622 |  |  |  |  |  |  |  | 
23 | CAL-12T | 0.529 | 0.541 | 0.668 | 0.601 | 0.83 | 0.927 | 0.792 | 0.941 | 0.981 |  |  |  |  | 0.37 | 0.505 | 0.436 | 0.447
24 | EBC-1 |  |  |  |  | 0.964 | 0.979 | 0.977 | 0.922 | 0.979 |  |  |  |  |  |  |  | 
